Test results as given in patent US12624017B2, “Salt form of isoquinolinone type compound as rock inhibitor and preparation method therefor” (GUANGZHOU OCUSUN OPHTHALMIC BIOTECHNOLOGY CO., LTD., priority 2020, dated 2026).

Tests used:
[1] = test system: New Zealand rabbits with normal intraocular pressure; experiment: Intraocular pressure reduction, normal intraocular pressure, Day 1 (Operation II); format: in vivo, New Zealand white rabbits; conditions: 4 mg/mL in right eye, Day 1; for Change in intraocular pressure: vs negative controls
Description: An intraocular pressure reduction effect and potential ocular toxicity of the compound of formula (I) were inspected with rabbits with normal intraocular pressure by repeated administration of eye drops for 14 days.
Male New Zealand white rabbits, aged 97 to 127 days, weighted 2.6-3.5 kg, purchased from Pizhou Oriental Breeding Co., Ltd.
42 male New Zealand white rabbits were randomly grouped into 7 groups according to body weights, 6 rabbits/group. Among the animals in Groups 1-7, the left eye was administrated dropwise with normal saline, and the right eye was administrated dropwise with a solvent/control/test article in an administration volume of 50 μL/eye respectively, once a day for 14 consecutive days, and the day of first administration was recorded as Day 1. The intraocular pressures of the animals were measured before administration on Day 1, as well as at 1 h, 2 h, 4 h, 6 h, 8 h and 10 h after administration on Day 1 (Table 10).

[2] = test system: New Zealand rabbits suffered with acute intraocular hypertension; experiment: Intraocular pressure reduction test in acute intraocular hypertension model; format: in vivo, New Zealand white rabbits; conditions: for Intraocular pressure in left eye: 4 mg/mL group, left eye (solvent only); for Intraocular pressure in right eye: 4 mg/mL, 50 μL, right eye (modelled, dosed)
Description: Acute intraocular hypertension was induced for rabbits by injection of a viscoelastic agent into the anterior chamber, and the effects of ocular pressure reduction of the compound of formula (I) were inspected by administration of eye drops at different concentrations.
Male New Zealand white rabbits, aged 97 to 127 days, weighted 2.5 to 3.4 kg, purchased from Pizhou Oriental Breeding Co., Ltd.
50 male New Zealand white rabbits were randomly divided into 5 groups according to body weight, 10 rabbits/group. The anterior chambers of the right eyes of animals in Groups 1 to 5 were injected with medical sodium hyaluronate gel in a single dose, 100 μL/eye, to induce ocular hypertension in the animals. In 5 to 15 min after molding, the right eye was administrated dropwise with the solvent, K-115, and the test article (compounds of formula (I) of different concentrations), and the left eye was administrated dropwise with the solvent, 50 μL/eye; and the intraocular pressures of the animals in both eyes were measured before administration, as well as at 2, 4, 6, 8, and 10 h after administration, respectively.

For `C[C@H]1CNCCCN1S(=O)(=O)c1cccc2cncc(F)c12` [K-115, reference compound], the “Average intraocular pressure in both eyes” value (“Average intraocular pressure” for short) ([1]; 1 h after administration) was 5.50 mmHg, the “Change in intraocular pressure” value ([1]; 1 h after administration) was −3.39 mmHg and the “Average intraocular pressure” value ([1]; 2 h after administration) was 7.06 mmHg. For the same compound, the “Change in intraocular pressure” value ([1]; 2 h after administration) was −2.50 mmHg, the “Average intraocular pressure” value ([1]; 4 h after administration) was 9.00 mmHg and the “Change in intraocular pressure” value ([1]; 4 h after administration) was −0.89 mmHg. The “Average intraocular pressure” value ([1]; 6 h after administration) was 9.17 mmHg, the “Change in intraocular pressure” value ([1]; 6 h after administration) was −1.61 mmHg and the “Average intraocular pressure” value ([1]; 8 h after administration) was 10.61 mmHg. For the same compound, the “Change in intraocular pressure” value ([1]; 8 h after administration) was 0.23 mmHg, the “Average intraocular pressure” value ([1]; 10 h after administration) was 12.33 mmHg and the “Change in intraocular pressure” value ([1]; 10 h after administration) was 0.17 mmHg. The “Average intraocular pressure” value ([1]; before administration) was 10.17 mmHg, the “Change in intraocular pressure” value ([1]; before administration) was 0.83 mmHg and the “Intraocular pressure in left eye” value ([2]; 2 h after administration) was 6.50 mmHg. For the same compound, the “Intraocular pressure in left eye” value ([2]; 4 h after administration) was 8.54 mmHg, the “Intraocular pressure in left eye” value ([2]; 6 h after administration) was 11.40 mmHg and the “Intraocular pressure in left eye” value ([2]; 8 h after administration) was 13.20 mmHg. The “Intraocular pressure in left eye” value ([2]; 10 h after administration) was 13.37 mmHg, the “Intraocular pressure in left eye” value ([2]; before administration) was 11.80 mmHg and the “Intraocular pressure in right eye” value ([2]; 2 h after administration) was 8.20 mmHg. For the same compound, the “Intraocular pressure in right eye” value ([2]; 4 h after administration) was 11.27 mmHg, the “Intraocular pressure in right eye” value ([2]; 6 h after administration) was 15.07 mmHg and the “Intraocular pressure in right eye” value ([2]; 8 h after administration) was 15.57 mmHg. For the same compound, the “Intraocular pressure in right eye” value ([2]; 10 h after administration) was 16.47 mmHg and the “Intraocular pressure in right eye” value ([2]; before administration) was 11.77 mmHg.
